Experimental data: patent US9035056B2, “Pyrido[4,3-b]indole and pyrido[3,4-b]indole derivatives and methods of use” (Medivation Technologies, Inc., priority 2011, dated 2015)

Experiments:
[1] = target: T1, human recombinant adrenergic α2A receptor (Homo sapiens, UniProt P08913); assay: Adrenergic α2A radioligand binding ([3H]MK-912); details: 0.1 μM compound; for inhibition at 0.1 µM: read-out: Percentage inhibition of ligand binding, Adrenergic α2A; for Percentage inhibition of ligand binding, Adrenergic α2A: 0.1 µM
T1 construct: expressed in transfected cells; host or cells: insect Sf9 cells
T1 sequence (P08913 1-465): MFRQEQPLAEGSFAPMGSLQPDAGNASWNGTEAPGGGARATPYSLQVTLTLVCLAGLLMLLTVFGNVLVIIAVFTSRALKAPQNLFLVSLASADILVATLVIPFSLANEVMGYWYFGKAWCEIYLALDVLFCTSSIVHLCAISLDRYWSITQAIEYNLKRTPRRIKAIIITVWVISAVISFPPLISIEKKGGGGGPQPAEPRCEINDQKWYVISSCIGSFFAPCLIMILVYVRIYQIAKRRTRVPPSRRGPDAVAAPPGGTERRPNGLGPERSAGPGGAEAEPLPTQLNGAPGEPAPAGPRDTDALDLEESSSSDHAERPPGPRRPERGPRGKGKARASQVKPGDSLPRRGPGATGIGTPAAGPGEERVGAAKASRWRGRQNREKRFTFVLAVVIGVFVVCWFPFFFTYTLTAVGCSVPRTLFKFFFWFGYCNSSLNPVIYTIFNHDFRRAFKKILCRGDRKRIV
Protocol: To evaluate in radioligand binding assays the activity of compounds of the invention, human recombinant adrenergic α2A receptor expressed in insect Sf9 cells (Uhlen, S. et al, J. Pharmacol. Exp. Ther. 271:1558, 1994) in a modified Tris-HCl buffer (50 mM Tris-HCl, pH 7.4, 12.5 mM MgCl2, 2 mM EDTA) was used. Compounds of invention were incubated with 1 nM [^3H]MK-912 for 60 min at 25° C. MK-912 is (2S-trans)-1,3,4,5′,6,6′,7,12b-octahydro-1′,3′-dimethyl-spiro[2H-benzofuro[2,3-a]quinolizine-2,4′(1′H)-pyrimidin]-2′(3′H)-one hydrochloride Non-specific binding was estimated in the presence of 10 μM WB-4101 (2-(2,6-Dimethoxyphenoxyethyl)aminomethyl-1,4-benzodioxane hydrochloride). Receptor proteins were filtered and washed, the filters were then counted to determine [^3H]MK-912 specifically bound. Compounds were screened at 1 μM or lower, using 1% DMSO as vehicle. Biochemical assay results are presented as the percent inhibition of specific binding in Table 3.

[2] = target: T2, human recombinant adrenergic α2C receptor (Homo sapiens, UniProt P18825); assay: Adrenergic α2C radioligand binding ([3H]MK-912); details: 0.1 μM compound; read-out: Percentage inhibition of ligand binding, Adrenergic α2C
T2 construct: expressed in transfected cells; host or cells: insect Sf9 cells
T2 sequence (P18825 1-462): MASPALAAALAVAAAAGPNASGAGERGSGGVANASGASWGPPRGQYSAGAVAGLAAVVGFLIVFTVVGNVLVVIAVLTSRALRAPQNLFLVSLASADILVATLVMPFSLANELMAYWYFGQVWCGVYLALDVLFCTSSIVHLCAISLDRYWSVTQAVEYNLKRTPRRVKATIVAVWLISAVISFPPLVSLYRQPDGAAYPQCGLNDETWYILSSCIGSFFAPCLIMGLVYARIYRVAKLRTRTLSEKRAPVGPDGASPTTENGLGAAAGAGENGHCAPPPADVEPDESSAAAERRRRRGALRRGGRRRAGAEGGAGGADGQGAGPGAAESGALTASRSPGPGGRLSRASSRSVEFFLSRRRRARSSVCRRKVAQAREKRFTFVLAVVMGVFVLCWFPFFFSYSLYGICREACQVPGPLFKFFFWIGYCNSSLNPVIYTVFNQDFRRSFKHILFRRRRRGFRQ
Protocol: To evaluate in radioligand binding assays the activity of compounds of the invention, human recombinant adrenergic α2C receptor expressed in insect Sf9 cells (Uhlen, S. et al, J. Pharmacol. Exp. Ther. 271:1558, 1994) in a modified Tris-HCl buffer (50 mM Tris-HCl, pH 7.4, 12.5 mM MgCl2, 2 mM EDTA) was used. Compounds of the invention were incubated with 1 nM [^3H]MK-912 for 60 min at 25° C. Non-specific binding was estimated in the presence of 10 μM WB-4101. Receptor proteins were filtered and washed, the filters were then counted to determine [^3H]MK-912 specifically bound. Compounds were screened at 1 μM or lower, using 1% DMSO as vehicle. Biochemical assay results are presented as the percent inhibition of specific binding in Table 3.

[3] = target: T3, human recombinant serotonin (5-Hydroxytryptamine) 5-HT7 receptor (Homo sapiens, UniProt P34969); assay: Serotonin 5-HT7 radioligand binding ([3H]LSD); details: 0.1 μM compound; read-out: Percentage inhibition of ligand binding, Serotonin 5-HT7
T3 construct: expressed in transfected cells; host or cells: CHO
T3 sequence (P34969 whole entry): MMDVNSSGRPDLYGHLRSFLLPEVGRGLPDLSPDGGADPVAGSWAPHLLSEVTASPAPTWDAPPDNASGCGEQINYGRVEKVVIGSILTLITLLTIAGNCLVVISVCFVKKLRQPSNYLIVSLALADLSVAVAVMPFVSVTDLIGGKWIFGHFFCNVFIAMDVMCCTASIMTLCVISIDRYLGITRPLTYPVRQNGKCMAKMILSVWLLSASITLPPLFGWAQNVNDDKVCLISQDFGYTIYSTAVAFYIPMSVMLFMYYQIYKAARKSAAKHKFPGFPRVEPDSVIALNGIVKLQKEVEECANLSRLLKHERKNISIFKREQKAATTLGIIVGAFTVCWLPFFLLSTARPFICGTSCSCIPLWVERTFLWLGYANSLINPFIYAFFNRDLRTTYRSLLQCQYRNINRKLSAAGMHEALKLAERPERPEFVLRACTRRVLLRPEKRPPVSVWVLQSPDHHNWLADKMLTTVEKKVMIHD
Protocol: To evaluate in radioligand binding assays the activity of compounds of the invention, human recombinant serotonin (5-Hydroxytryptamine) 5-HT7 receptor expressed in Chinese hamster ovary (CHO) cells (Roth, B. et al, J. Pharmacol. Exp. Ther. 268:1403, 1994; Shen, Y. et al, J. Biol. Chem. 268:18200, 1993) in a modified Tris-HCl buffer (50 mM Tris-HCl, pH 7.4, 10 mM MgCl2, 0.5 mM EDTA) was used. Compounds of invention were incubated with 5.5 nM [^3H] Lysergic acid diethylamide (LSD) for 2 h at 25° C. Non-specific binding was estimated in the presence of 10 μM Serotonin (5-HT). Receptor proteins were filtered and washed, the filters were then counted to determine [^3H]LSD specifically bound. Compounds were screened at 1 μM or lower, using 1% DMSO as vehicle. Biochemical assay results are presented as the percent inhibition of specific binding in Table 5.

[4] = target: T4, human recombinant serotonin (5-Hydroxytryptamine) 5-HT2A receptor (Homo sapiens, UniProt P28223); assay: Serotonin 5-HT2A radioligand binding ([3H]Ketanserin); details: 0.1 μM compound; read-out: Percentage inhibition of ligand binding, Serotonin 5-HT2A
T4 construct: expressed in transfected cells; host or cells: CHO-K1
T4 sequence (P28223 whole entry): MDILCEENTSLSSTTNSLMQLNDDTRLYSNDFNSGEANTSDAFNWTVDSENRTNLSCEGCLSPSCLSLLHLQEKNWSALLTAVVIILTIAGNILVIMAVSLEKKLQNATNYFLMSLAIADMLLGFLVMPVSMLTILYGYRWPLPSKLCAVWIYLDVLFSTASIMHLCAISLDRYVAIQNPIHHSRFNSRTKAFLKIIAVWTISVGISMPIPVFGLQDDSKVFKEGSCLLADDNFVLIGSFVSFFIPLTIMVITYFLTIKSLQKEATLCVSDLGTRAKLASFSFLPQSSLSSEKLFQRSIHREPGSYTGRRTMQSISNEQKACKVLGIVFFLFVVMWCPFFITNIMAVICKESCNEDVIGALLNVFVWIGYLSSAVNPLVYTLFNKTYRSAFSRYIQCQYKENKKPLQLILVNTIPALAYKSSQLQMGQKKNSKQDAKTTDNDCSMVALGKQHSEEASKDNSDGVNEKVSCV
Protocol: To evaluate in radioligand binding assays the activity of compounds of the invention, human recombinant serotonin (5-Hydroxytryptamine) 5-HT2A receptor expressed in Chinese hamster ovary (CHO) K1 cells (Bonhaus, D. et al, Br. J. Pharmacol. 115:622, 1995; Saucier, C. et al, J. Neurochem. 68:1998, 1997) in a 50 mM Tris-HCl buffer, pH 7.4, was used. Compounds of the invention were incubated with 0.5 nM [^3H]Ketanserin for 60 min at 25° C. Non-specific binding was estimated in the presence of 1 μM Mianserin. Receptor proteins were filtered and washed, the filters were then counted to determine [^3H]Ketanserin specifically bound. Compounds were screened at 1 μM or lower, using 1% DMSO as vehicle. Biochemical assay results are presented as the percent inhibition of specific binding in Table 5.

## Cc1ccc2c(c1)c1c(n2CC2(O)CCCc3cnccc32)CCN(C)C1 (single isomer, unassigned) [ii-74a]
[1]
  inhibition at 0.1 µM: 14%

## Cc1ccc2c(c1)c1c(n2CC2(O)CCCc3cnccc32)CCN(C)C1 (single isomer, unassigned) [ii-74b]
[1]
  Percentage inhibition of ligand binding, Adrenergic α2A: 12%

## Cc1ccc2c(c1)c1c(n2CC2(O)CCCc3ncccc32)CCN(C)C1 (single isomer, unassigned) [ii-112a]
[1]
  Percentage inhibition of ligand binding, Adrenergic α2A: 15%

## Cc1ccc2c(c1)c1c(n2CC2(O)CCCc3ncccc32)CCN(C)C1 (single isomer, unassigned) [ii-112b]
[1]
  Percentage inhibition of ligand binding, Adrenergic α2A: 4%

## Cc1ccc2c(c1)c1c(n2CC2(O)CCCc3ccncc32)CCN(C)C1 (single isomer, unassigned) [ii-113a]
[1]
  inhibition at 0.1 µM: 9%

## Cc1ccc2c(c1)c1c(n2/C=C2/CCCc3ccccc32)CCN(C)C1 [i-2]
[1]
  inhibition at 0.1 µM: 98%
[2]
  inhibition at 0.1 µM: 90%
[3]
  inhibition at 0.1 µM: 97%
[4]
  inhibition at 0.1 µM: 99%

## Cc1ccc2c(c1)c1c(n2/C=C2\CCCc3ccccc32)CCN(C)C1 [i-3]
[1]
  inhibition at 0.1 µM: 92%
[2]
  inhibition at 0.1 µM: 72%
[3]
  inhibition at 0.1 µM: 96%
[4]
  inhibition at 0.1 µM: 100%
